Data published in US20150157739A1, “Imidazo[2,1]thiazol-3-one derivatives” (Hoffmann-La Roche Inc., priority 2012, published 2015).

Legend:
[1] = target: T1, aggregated recombinant human-microtubule associated protein Tau (Homo sapiens, UniProt P10636); test: Thiazin-red R displacement fluorescence assay on aggregated Tau; assay type: binding; conditions: displacement of Thiazin-red R from aggregated Tau; compound 0.3 nM to 10000 nM; 30 min room temperature; Ex 531 nm/Em 595 nm
T1 construct: Recombinant human-microtubule associated protein Tau purified from E. coli is aggregated at a concentration of 5 μM with Arachidonic Acid (100 μM) in Tris 10 mM pH8, 24 h at 37° C
T1 sequence (P10636 whole entry): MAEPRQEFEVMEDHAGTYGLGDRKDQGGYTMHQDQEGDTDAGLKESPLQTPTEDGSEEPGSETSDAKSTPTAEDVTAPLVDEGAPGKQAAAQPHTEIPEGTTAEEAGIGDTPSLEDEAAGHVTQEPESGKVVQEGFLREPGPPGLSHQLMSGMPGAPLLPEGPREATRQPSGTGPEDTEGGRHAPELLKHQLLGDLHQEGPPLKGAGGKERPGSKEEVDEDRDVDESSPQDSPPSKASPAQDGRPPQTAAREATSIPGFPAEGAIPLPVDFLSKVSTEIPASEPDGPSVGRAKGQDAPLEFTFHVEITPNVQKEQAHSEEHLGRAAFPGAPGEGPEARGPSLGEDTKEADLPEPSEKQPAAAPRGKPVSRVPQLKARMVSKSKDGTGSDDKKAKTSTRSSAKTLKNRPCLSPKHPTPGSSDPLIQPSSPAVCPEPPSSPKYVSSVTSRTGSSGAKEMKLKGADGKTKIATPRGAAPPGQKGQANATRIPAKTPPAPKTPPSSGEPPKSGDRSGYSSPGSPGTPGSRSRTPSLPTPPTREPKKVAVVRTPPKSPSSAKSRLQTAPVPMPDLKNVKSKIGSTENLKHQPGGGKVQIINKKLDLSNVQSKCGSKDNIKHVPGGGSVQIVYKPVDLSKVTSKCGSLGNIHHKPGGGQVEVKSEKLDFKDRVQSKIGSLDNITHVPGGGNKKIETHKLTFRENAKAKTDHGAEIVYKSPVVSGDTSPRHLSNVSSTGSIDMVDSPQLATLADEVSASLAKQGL

[2] = target: T2, aggregated synthetic Aβ40 (Homo sapiens, UniProt P05067); test: Thiazin-red R displacement fluorescence assay on aggregated A-beta; assay type: binding; conditions: displacement of Thiazin-red R from aggregated Aβ40; compound 0.3 nM to 10000 nM; 30 min room temperature; Ex 531 nm/Em 595 nm
T2 construct: Synthetic Aβ40 is aggregated at a concentration of 50 μM
T2 sequence (P05067 672-711 limits assumed): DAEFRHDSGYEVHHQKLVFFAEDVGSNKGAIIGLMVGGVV

| IC50 [1] [nM] | IC50 [2] [nM] | SMILES |
| --- | --- | --- |
| 0.8 | 1730 | COc1cc(/C=c2\sc3nc(-c4cc(Br)cc(C#N)c4)cn3c2=O)cc(Cl)c1O [Example 85, 3-Bromo-5-{2-[1-(3-chloro-4-hydroxy-5-methoxy-phenyl)-meth-(Z)-ylidene]-3-oxo-2,3-dihydro-imidazo[2,1-b]thiazol-6-yl}-benzonitrile] |
| 5 | 55 | COc1cc(/C=c2\sc3nc(-c4cccc(OCCF)c4)cn3c2=O)cc(Cl)c1O [Example 74, 2-[1-(3-Chloro-4-hydroxy-5-methoxy-phenyl)-meth-(Z)-ylidene]-6-(3-(2-fluoroethoxyl)phenyl)-imidazo[2,1-b]thiazol-3-one] |
| 837 | 1280 | COc1cc(/C=c2\sc3nc(-c4ccccc4C)cn3c2=O)ccc1O [Example 11, 2-[1-(4-hydroxy-3-methoxy-phenyl)-meth-(Z)-ylidene]-6-o-tolyl-imidazo[2,1-b]thiazol-3-one] |
| 4 | 38 | COc1cc(/C=c2\sc3nc(-c4ccc(C(=O)OCCF)cc4)cn3c2=O)cc(Cl)c1O [Example 148, 4-{2-[1-(3-Chloro-4-hydroxy-5-methoxy-phenyl)-meth-(Z)-ylidene]-3-oxo-2,3-dihydro-imidazo[2,1-b]thiazol-6-yl}-benzoic acid 2-fluoro-ethyl ester] |
| 39 | 482 | COc1cc(/C=c2\sc3nc(-c4ccc(N5CCOCC5)cc4)cn3c2=O)cc(Cl)c1O [Example 92, 2-[1-(3-Chloro-4-hydroxy-5-methoxy-phenyl)-meth-(Z)-ylidene]-6-(4-morpholinophenyl)-imidazo[2,1-b]thiazol-3-one] |
| 2 | 792 | COc1cc(/C=c2\sc3nc(-c4ccc(C(N)=O)cc4)cn3c2=O)cc(Cl)c1O [Example 101, 4-{2-[1-(3-Chloro-4-hydroxy-5-methoxy-phenyl)-meth-(Z)-ylidene]-3-oxo-2,3-dihydro-imidazo[2,1-b]thiazol-6-yl}-benzamide] |
| 14 | 898 | COc1cc(/C=c2\sc3nc(-c4ccc(C(=O)O)cc4)cn3c2=O)cc(F)c1O [Example 138, 4-{2-[1-(3-Fluoro-4-hydroxy-5-methoxy-phenyl)-meth-(Z)-ylidene]-3-oxo-2,3-dihydro-imidazo[2,1-b]thiazol-6-yl}-benzoic acid] |
| 0.3 | 6 | COc1cc(/C=c2\sc3nc(-c4ccc(C#N)cc4)cn3c2=O)cc(Cl)c1O [Example 87, 4-{2-[1-(3-Chloro-4-hydroxy-5-methoxy-phenyl)-meth-(Z)-ylidene]-3-oxo-2,3-dihydro-imidazo[2,1-b]thiazol-6-yl}-benzonitrile] |
| 3 | 12 | CCCOc1cc(/C=c2\sc3nc(-c4ccc(Cl)cc4)cn3c2=O)cc(OC)c1O [Example 31, 6-(4-Chloro-phenyl)-2-[1-(4-hydroxy-3-methoxy-5-propoxy-phenyl)-meth-(Z)-ylidene]-imidazo[2,1-b]thiazol-3-one] |
| 64 | 2220 | CCCOc1cc(/C=c2\sc3nc(-c4cnccn4)cn3c2=O)cc(Cl)c1O [Example 129, 2-[1-(3-Chloro-4-hydroxy-5-propoxy-phenyl)-meth-(Z)-ylidene]-6-pyrazin-2-yl-imidazo[2,1-b]thiazol-3-one] |
| 178 | 1160 | CCOc1cc(/C=c2\sc3nc(-c4ccc(Cl)cc4)cn3c2=O)ccc1O [Example 5, 6-(4-Chloro-phenyl)-2-[1-(3-ethoxy-4-hydroxy-phenyl)-meth-(Z)-ylidene]-imidazo[2,1-b]thiazol-3-one] |
| 25 | 256 | CCCOc1cc(/C=c2\sc3nc(-c4cccc(OC(F)(F)F)c4)cn3c2=O)cc(OC)c1O [Example 33, 2-[1-(4-Hydroxy-3-methoxy-5-propoxy-phenyl)-meth-(Z)-ylidene]-6-(3-trifluoromethoxy-phenyl)-imidazo[2,1-b]thiazol-3-one] |
| 401 | > 10000 | COc1cc(/C=c2\sc3nc(-c4cccc(OC(F)(F)F)c4)cn3c2=O)ccc1O [Example 36, 2-[1-(4-Hydroxy-3-methoxy-phenyl)-meth-(Z)-ylidene]-6-(3-trifluoromethoxy-phenyl)-imidazo[2,1-b]thiazol-3-one] |
| 30 | 29 | COc1cc(/C=c2\sc3nc(-c4ccc(N(C)C)cc4)cn3c2=O)cc(Cl)c1O [Example 93, 2-[1-(3-Chloro-4-hydroxy-5-methoxy-phenyl)-meth-(Z)-ylidene]-6-(4-(dimethylamino)phenyl)-imidazo[2,1-b]thiazol-3-one] |
| 2 | 356 | CCCNC(=O)c1ccc(-c2cn3c(=O)/c(=C/c4cc(Cl)c(O)c(OC)c4)sc3n2)cc1 [Example 115, 4-{2-[1-(3-Chloro-4-hydroxy-5-methoxy-phenyl)-meth-(Z)-ylidene]-3-oxo-2,3-dihydro-imidazo[2,1-b]thiazol-6-yl}-N-propyl-benzamide] |
| 41 | 448 | COc1cc(/C=c2\sc3nc(-c4ccc(C(=O)N(C)CCCF)cc4)cn3c2=O)cc(F)c1O [Example 147] |
| 4 | 114 | COc1cc(/C=c2\sc3nc(-c4cccc(OC(F)(F)F)c4)cn3c2=O)cc(OC)c1O [Example 18, 2-[1-(4-Hydroxy-3,5-dimethoxy-phenyl)-meth-(Z)-ylidene]-6-(3-trifluoromethoxy-phenyl)-imidazo[2,1-b]thiazol-3-one] |
| 13 | 418 | COc1cc(/C=c2\sc3nc(-c4cc(C)nc(C)c4)cn3c2=O)cc(Cl)c1O [Example 63, 2-[1-(3-Chloro-4-hydroxy-5-methoxy-phenyl)-meth-(Z)-ylidene]-6-(2,6-dimethyl-pyridin-4-yl)-imidazo[2,1-b]thiazol-3-one] |
| 12.9 | > 10000 | COc1cc(/C=c2\sc3nc(-c4cccc(C(=O)N(C)CCc5cccc(F)c5)c4)cn3c2=O)cc(Cl)c1O [Example 118, 3-{2-[1-(3-Chloro-4-hydroxy-5-methoxy-phenyl)-meth-(Z)-ylidene]-3-oxo-2,3-dihydro-imidazo[2,1-b]thiazol-6-yl}-N-[2-(3-fluoro-phenyl)-ethyl]-N-methyl-benzamide] |
| 53 | 437 | COc1ccc(-c2nc3s/c(=C\c4cc(F)c(O)c(OC)c4)c(=O)n3c2C)cc1 [Example 15, 2-[1-(3-Fluoro-4-hydroxy-5-methoxy-phenyl)-meth-(Z)-ylidene]-6-(4-methoxy-phenyl)-5-methyl-imidazo[2,1-b]thiazol-3-one] |
| 8 | 1080 | COc1cc(/C=c2\sc3nc(-c4cccc(C(=O)NCCF)c4)cn3c2=O)cc(Cl)c1O [Example 106, 3-{2-[1-(3-Chloro-4-hydroxy-5-methoxy-phenyl)-meth-(Z)-ylidene]-3-oxo-2,3-dihydro-imidazo[2,1-b]thiazol-6-yl}-N-(2-fluoro-ethyl)-benzamide] |
| 5 | 18 | COc1cc(/C=c2\sc3nc(-c4ccc(Cl)cc4)cn3c2=O)cc(O)c1O [Example 8, 6-(4-Chloro-phenyl)-2-[1-(3,4-dihydroxy-5-methoxy-phenyl)-meth-(Z)-ylidene]-imidazo[2,1-b]thiazol-3-one] |
| 2 | 86 | COc1cc(/C=c2\sc3nc(-c4ccc(C(=O)NCCCF)cc4)cn3c2=O)cc(Cl)c1O (single isomer, unassigned) [Example 133] |
| 42 | 3890 | COc1cc(/C=c2\sc3nc(-c4cccc(N5CCCC5=O)c4)cn3c2=O)cc(Cl)c1O [Example 94, 2-[1-(3-Chloro-4-hydroxy-5-methoxy-phenyl)-meth-(Z)-ylidene]-6-[3-(2-oxo-pyrrolidin-1-yl)-phenyl]-imidazo[2,1-b]thiazol-3-one] |
| 1 | 1240 | COc1cc(/C=c2\sc3nc(-c4cccc(C(N)=O)c4)cn3c2=O)cc(Cl)c1O [Example 86, 3-{2-[1-(3-Chloro-4-hydroxy-5-methoxy-phenyl)-meth-(Z)-ylidene]-3-oxo-2,3-dihydro-imidazo[2,1-b]thiazol-6-yl}-benzamide] |
| 49 | 215 | COc1cc(/C=c2\sc3nc(-c4ccc(Cl)cc4)cn3c2=O)ccc1O [Example 3, 6-(4-Chloro-phenyl)-2-[1-(4-hydroxy-3-methoxy-phenyl)-meth-(Z)-ylidene]-imidazo[2,1-b]thiazol-3-one] |
| 7 | 39 | COc1cc(/C=c2\sc3nc(-c4ccc(Cl)cc4)cn3c2=O)cc(C)c1O [Example 32, 6-(4-Chloro-phenyl)-2-[1-(4-hydroxy-3-methoxy-5-methyl-phenyl)-meth-(Z)-ylidene]-imidazo[2,1-b]thiazol-3-one] |
| 1.3 | 103 | COc1cc(/C=c2\sc3nc(-c4ccncc4)cn3c2=O)cc(Br)c1O [Example 70, 2-[1-(3-Bromo-4-hydroxy-5-methoxy-phenyl)-meth-(Z)-ylidene]-6-(pyridin-4-yl)-imidazo[2,1-b]thiazol-3-one] |
| 3 | 300 | COc1cc(/C=c2\sc3nc(-c4ccncc4)cn3c2=O)cc(Cl)c1O [Example 68, 2-[1-(3-Chloro-4-hydroxy-5-methoxy-phenyl)-meth-(Z)-ylidene]-6-(pyridin-4-yl)-imidazo[2,1-b]thiazol-3-one] |
| 6 | 3320 | COc1cc(/C=c2\sc3nc(-c4cccc(F)c4)cn3c2=O)cc(Cl)c1O [Example 57, 2-[1-(3-Chloro-4-hydroxy-5-methoxy-phenyl)-meth-(Z)-ylidene]-6-(3-fluoro-phenyl)-imidazo[2,1-b]thiazol-3-one] |
